In US11185530B2, “Composition for preventing or treating hearing loss, containing atorvastatin as active ingredient” (AJOU UNIVERSITY INDUSTRY-ACADEMIC COOPERATION FOUNDATION, priority 2017, dated 2021):

Assays:
[1] = tested on: auditory cell line (HEI-OC1); assay: TUNEL immunostaining quantified by fluorescence microscopy; assay type: cell-based; settings: HEI-OC1, combination of palmitate and atorvastatin
[2] = tested on: HEI-OC1 cells; assay: Western blotting of cleaved caspase-3, PARP and AKT phosphorylation; assay type: cell-based
[3] = tested on: obese C57 mice; settings: Lipids in Health and Disease, 2014; cited from earlier work
[4] = tested on: breast cancer cell xenograft model; settings: Front. Med. China, 2009; cited from earlier work
[5] = tested on: cochlea of the diabetic mouse model; assay: H&E staining and immunohistochemistry (DHE, TUNEL) of cochlea of diabetic mouse model; assay type: in vivo, C57/BL6J male mice
Description: Damage to cochlear hair cells around the base and middle turn (16 kHz) region, fibrocytes of the lateral wall and spiral ganglion cells of the cochlea of the diabetic mouse model established in Example 1 was evaluated through H & E (hematoxylin and eosin) staining and immunohistochemistry.
Then, the auditory cells (cochlear hair cells) were observed through immunohistochemistry.
The spiral ganglion cells were analyzed by H & E staining.
Stria vascularis cells in the lateral wall in the cochlea (inner ear) were analyzed by H & E staining.

[6] = tested on: mouse model of age-related hearing loss; settings: Neuroscience Letters, 2007; cited from earlier work
[7] = tested on: auditory cell line (HEI-OC1); assay: ATP detection luminescence; assay type: cell-based; settings: total extract of cells, palmitate plus atorvastatin
Description: In addition, the effects of atorvastatin on the protection of cells and on energy metabolisms were evaluated using ATP detection luminescence.

[8] = tested on: auditory cell line (HEI-OC1); assay: DCFDA staining of reactive oxygen species; assay type: cell-based; settings: HEI-OC1, palmitate and atorvastatin
[9] = tested on: noise-induced hearing loss rat model; settings: low dose, 5 mg/kg; Int J Occup Environ Med, 2016; cited from earlier work
[10] = tested on: diabetic mouse model; assay: Body weight, blood glucose, glucose tolerance and insulin tolerance in diabetic mouse model; assay type: in vivo, C57/BL6J male mice; settings: 12-week diabetic mice, 20 mg/kg i.p. once every 2 days for 5 weeks, vs control group
Description: The diabetes-mediated hearing loss model was fed with 60% high fat/30% fructose water for 12 weeks and bred to induce diabetes. The diabetes model was established by measuring blood glucose levels, and testing glucose tolerance and insulin tolerance once every two weeks for 12 weeks, weighing weekly and conducting food/water intake efficiency tests twice weekly.
The experimental group was divided into an atorvastatin group (n=15, 20 mg/kg) and a control (vehicle) group (n=15, DMSO+normal saline) and intraperitoneal administration was conducted once every 2 days for 5 weeks. During the drug administration period, body weight and food intake efficiency tests were performed. Hearing tests, blood glucose measurement, and glucose and insulin tolerance tests were performed immediately before the end of the administration period.
In addition, body weight, blood glucose level, glucose tolerance and insulin tolerance were measured in the experimental group, obtained by administering atorvastatin to the 12-week diabetic mice, and in the control group. […] All statistical significance was analyzed using one-way ANOVA of SPSS program and student's T-tests.

[11] = tested on: auditory cell line (HEI-OC1); assay: WST-1 assay of cytotoxicity and cell viability; assay type: cell-based
Description: The effect of palmitate on cytotoxicity and cell viability of the auditory cell line (HEI-OC1) was quantitatively analyzed through a WST-1 assay.
In order to evaluate the function of atorvastatin against the cytotoxicity of palmitate, atorvastatin was pre-treated at each concentration and palmitate was post-treated at each concentration.
The cytotoxic and apoptotic effects of palmitate and the cytoprotective effect of atorvastatin were analyzed using a student's T-test for statistical significance through quantification.

[12] = tested on: HEI-OC1 cells; assay: PI staining and cell morphology analysis of apoptosis; assay type: cell-based; settings: HEI-OC1, 24 hours, 200 to 800 μM tested
Description: As a cell experiment model that replaces the diabetic mouse model through a high fat/fructose diet, that is, obesity, a cytotoxicity experiment model based on saturated fatty acid palmitate, which is an intermediate product of lipid synthesis that is excessively abundant during obesity, has been devised. HEI-OC1 (house-ear institute-organ of Corti 1), the auditory cell line conducting the major auditory function, was used, and the diabetes-mediated hearing loss cell line model was treated with palmitate.
In order to evaluate apoptosis, 24 hours after HEI-OC1 cells, the auditory cell line, were treated with 200 to 800 μM of palmitate, PI (propidium iodide) staining and the cell morphology thereof were analyzed. As a result, cell apoptosis was induced with a change in cell morphology from the palmitate concentration of 200 μM, and this phenomenon became more apparent as the concentration increased (FIG. 4 in part A).

[13] = atorvastatin-administered diabetic mice

With `CC(C)c1c(C(=O)Nc2ccccc2)c(-c2ccccc2)c(-c2ccc(F)cc2)n1CC[C@@H](O)C[C@@H](O)CC(=O)O` [atorvastatin] the “number of TUNEL-stained cells” value [1] was “statistically decreased”, the “phosphorylation of AKT after treatment with atorvastatin” value ([2]; HEI-OC1, by concentration and time) was “increased” and the “AKT protein phosphorylation under palmitate treatment” value ([2]; HEI-OC1, palmitate plus atorvastatin) was “inhibited the reduction of AKT protein phosphorylation”. For the same compound, the “obesity-induced type 2 diabetes” value [3] was “inhibits obesity-induced type 2 diabetes”, the “tumor growth and metastasis” value [4] was “inhibit tumor growth and metastasis” and the “TUNEL expression in spiral ganglion cells” value [5, 13] was “suppressed”. For the same compound, the “apoptosis (TUNEL) of stria vascularis cells” value [5, 13] was “markedly suppressed”, the “enlargement of stria vascularis tissue of the lateral wall (H&E)” value [5, 13] was “not observed” and the “reactive oxygen species in cochlear hair cells (DHE immunohistochemistry)” value [5, 13] was “decreased reactive oxygen species, like normal mice”. The “spiral ganglion cell size and nucleus morphology (H&E)” value ([5]; atorvastatin-administered diabetic mice vs normal group) was “larger cell size than that of the normal group, but had no change in nucleus morphology”, the “morphology of cochlear hair cells (H&E)” value ([5]; diabetic mice administered with atorvastatin) was “no morphological changes” and the “hearing loss in age-related hearing loss model” value [6] was “delaying or inhibiting hearing loss”. For the same compound, the “production of mitochondrial energy (ATP)” value [7] was “maintained the production of mitochondrial energy (ATP)”, the “generation of reactive oxygen species (DCFDA)” value [8] was “statistically significantly inhibit” and the “hearing loss in noise-induced model” value [9] was “statistically significant effect of inhibiting hearing loss”. For the same compound, the blood glucose level [10] was “significantly improved”, the body weight [10] was “reduced” and the “glucose tolerance (GTT)” value [10] was “significantly improved”. For the same compound, the “insulin tolerance (ITT)” value [10] was “significantly improved”, the “cytotoxicity, treatment only with atorvastatin” value ([11]; 250, 500 or 1,000 nM, HEI-OC1) was “cytotoxicity was not observed” and the “palmitate-induced apoptosis (WST-1 cell viability)” value ([11]; atorvastatin pre-treated, palmitate post-treated, 24 hours) was “significantly inhibited”.

For `CCCCCCCCCCCCCCCC(=O)O` [palmitate], the “concentration from which cell apoptosis with change in cell morphology was induced” value [12] was ≥ 200 μM and the “cytotoxicity (WST-1 cell viability assay)” value ([11]; 24 hours, palmitate at 100, 200 and 400 μM) was 20 to 40%.
